The source of these data is US20230277534A1 (Plexxikon Inc., priority 2011, published 2023).

Bounds are passed on as bounds.

The IC50 is the point on the concentration scale where inhibition reaches its midpoint. By EC50 is commonly meant the concentration giving half of the maximal effect. High values mean lower potency in that assay, low ones higher potency in that assay.

For experiment [1], the target named is B-Raf V600E (Homo sapiens (Human), UniProt P15056, V600E). The experiment in a line: B-Raf V600E kinase biochemical activity assay (AlphaScreen, biotin-MEK1 substrate). The settings on record: 100 μM ATP. In outline:
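B-Raf V600E (0.1 ng) phosphorylated 100 nM biotin-MEK1 with 100 μM ATP (final) in HEPES pH 7.0 with Mg2+/Mn2+ for 45 min at room temperature. Compounds were tested over an 8-point serial dilution. Phospho-MEK1/2 was detected by AlphaScreen after 3 h with beads, and IC50 came from signal versus concentration.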
On the technique in general: Alpha assays give light when donor and acceptor beads are brought close together.

Experiment [2] has as its system IPC-298 human melanoma cell line that expresses activated NRAS. The experiment is described as follows: IPC-298_P-ERK cell activation assay (phosphorylated ERK, AlphaScreen). The settings on record: 1 h, IPC-298 cells, P-ERK activation, compound for one hour. It counts as cell-based. The procedure:
B9 is a squamous cell carcinoma cell line expressing activated HRAS that was isolated from a DMBA/TPA-induced mouse model of skin carcinogenesis (Stoler, et al. The Journal of Cell Biology, 1993, 122(5), 1103-17). IPC-298 is a human melanoma cell line that expresses activated NRAS (Aubert, et al. International Journal of Cancer, 1993, 54(5), 784-92). To determine whether compounds induce phosphorylated ERK and MEK, cells are plated in a 96-well dish and treated with an 8-point titration of compound for one hour at 37° C. The media is then removed and the cells are incubated with lysis buffer containing protease and phosphatase inhibitors. Phosphorylated ERK and MEK in the resulting lysates is detected using AlphaScreen™ technology. To detect phosphorylated ERK, cell lysates are incubated with streptavidin-coated donor beads, anti-mouse IgG acceptor beads, a biotinylated anti-ERK1/2 rabbit antibody, and a mouse antibody that recognizes ERK1/2 only when it is phosphorylated on Thr202 and Tyr204. The biotinylated ERK1/2 antibody will bind to both the streptavidin-coated donor beads and to ERK1/2 (regardless of its phosphorylation state), and the phospho-ERK1/2 antibody will bind to the acceptor beads and to ERK1/2 that is phosphorylated at Thr202/Tyr204. Excitation of the beads with laser light at 680 nm produces singlet oxygen, which is rapidly quenched unless the beads are in close proximity. When ERK is phosphorylated, both antibodies can bind the same protein, bringing the donor and acceptor beads into close proximity, producing a signal that can be measured at 580 nm. MEK phosphorylation is detected using a similar approach, only with antibodies directed against total MEK1/2 and MEK1/2 that is phosphorylated at Ser217 and Ser221.

Experiment [3] concerns COLO205 colon adenocarcinoma cells (B-Raf V600E mutation). The experiment in a line: COLO205 cell growth inhibition (ATPlite). It counts as cell-based. The settings on record: Homo sapiens, COLO 205, 72 h, 3 days. In outline:
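Cells treated for 3 days at 37 °C, 5% CO2 with an 8-point 1:3 dilution series, top final concentration 10 μM, DMSO control. ATPlite luminescence used as a measure of cell number; IC50 from reading versus concentration.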
A general note: Cellular ATP, detected with luciferase, serves as a proxy for viable cell number.

Sequence of B-Raf V600E (P15056 whole entry V600E): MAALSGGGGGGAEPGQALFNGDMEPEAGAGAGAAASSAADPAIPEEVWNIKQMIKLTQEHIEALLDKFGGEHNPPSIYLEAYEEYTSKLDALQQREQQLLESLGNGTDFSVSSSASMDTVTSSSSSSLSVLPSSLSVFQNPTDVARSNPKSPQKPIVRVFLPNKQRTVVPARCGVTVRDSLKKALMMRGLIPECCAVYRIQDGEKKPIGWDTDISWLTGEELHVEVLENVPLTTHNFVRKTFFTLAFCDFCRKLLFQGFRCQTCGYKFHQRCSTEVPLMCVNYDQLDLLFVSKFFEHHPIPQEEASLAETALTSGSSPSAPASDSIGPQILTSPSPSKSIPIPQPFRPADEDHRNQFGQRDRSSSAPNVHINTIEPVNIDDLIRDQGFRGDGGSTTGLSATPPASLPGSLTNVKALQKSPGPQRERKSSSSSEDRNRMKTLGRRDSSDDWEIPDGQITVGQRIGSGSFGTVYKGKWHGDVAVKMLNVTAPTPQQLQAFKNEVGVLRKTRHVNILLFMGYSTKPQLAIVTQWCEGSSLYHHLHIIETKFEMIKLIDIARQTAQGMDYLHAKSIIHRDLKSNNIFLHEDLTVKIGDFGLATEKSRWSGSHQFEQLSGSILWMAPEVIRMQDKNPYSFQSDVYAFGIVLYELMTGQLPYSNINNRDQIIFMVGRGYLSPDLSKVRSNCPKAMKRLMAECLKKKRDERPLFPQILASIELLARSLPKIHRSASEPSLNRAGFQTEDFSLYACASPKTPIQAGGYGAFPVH

Regarding `CCN(C)S(=O)(=O)Nc1ccc(F)c(C(=O)c2c[nH]c3ncc(Cl)cc23)c1F` [Compound P-0012, 5-chloro-3-[3-[[ethyl(methyl)sulfamoyl]amino]-2,6-difluoro-benzoyl]-1H-pyrrolo[2,3-b]pyridine], the IC50 in experiment [1] was below 0.1 µM; in experiment [3], above 1 µM. The EC50 in experiment [2] was above 10 µM.
The matching figures for `CCN(C)S(=O)(=O)Nc1ccc(F)c(C(=O)c2c[nH]c3ncc(C#N)cc23)c1F` [Compound P-0017, 5-cyano-3-[3-[[ethyl(methyl)sulfamoyl]amino]-2,6-difluoro-benzoyl]-1H-pyrrolo[2,3-b]pyridine]: below 0.1 µM, above 1 µM and above 10 µM.
The matching figures for `CCN(C)S(=O)(=O)Nc1cccc(C(=O)c2c[nH]c3ncc(Cl)cc23)c1F` [Compound P-0018, 5-chloro-3-[3-[[ethyl(methyl)sulfamoyl]amino]-2-fluoro-benzoyl]-1H-pyrrolo[2,3-b]pyridine]: below 0.1 µM, above 1 µM and above 10 µM.
Turning to `Cc1cnc2[nH]cc(C(=O)c3cccc(NS(=O)(=O)N4CCCC4)c3F)c2c1` [Compound P-0023, N-[2-fluoro-3-(5-methyl-1H-pyrrolo[2,3-b]pyridine-3-carbonyl)phenyl]pyrrolidine-1-sulfonamide], the IC50 in experiment [1] is below 0.1 µM; in experiment [3], above 1 µM. In experiment [2], this compound had an EC50 above 10 µM.
In the case of `CCN(C)S(=O)(=O)Nc1cccc(C(=O)c2c[nH]c3ncc(Br)cc23)c1F` [Compound P-0038, 5-bromo-3-[3-[[ethyl(methyl)sulfamoyl]amino]-2-fluoro-benzoyl]-1H-pyrrolo[2,3-b]pyridine], the results for the IC50 in experiment [1] and in experiment [3] were below 0.1 µM and above 1 µM, respectively. Besides, in experiment [2], the concentration giving a half-maximal response (EC50) was above 10 µM.
The corresponding values for `CCCN(C)S(=O)(=O)Nc1cccc(C(=O)c2c[nH]c3ncc(-c4cnc(OC)nc4)cc23)c1F` [Compound P-0040, 3-[2-fluoro-3-[[methyl(propyl)sulfamoyl]amino]benzoyl]-5-(2-methoxypyrimidin-5-yl)-1H-pyrrolo[2,3-b]pyridine] are below 0.1 µM, below 1 µM and above 10 µM.
The corresponding values for `O=C(c1cccc(NS(=O)(=O)N2CCCC2)c1F)c1c[nH]c2ncc(-c3cccnc3)cc12` [Compound P-0043, N-[2-fluoro-3-[5-(3-pyridyl)-1H-pyrrolo[2,3-b]pyridine-3-carbonyl]phenyl]pyrrolidine-1-sulfonamide] are below 0.1 µM, below 1 µM and above 10 µM.
On to `Cc1ccc(-c2cnc3[nH]cc(C(=O)c4cccc(NS(=O)(=O)N5CCCC5)c4F)c3c2)cn1` [Compound P-0045, N-[2-fluoro-3-[5-(6-methyl-3-pyridyl)-1H-pyrrolo[2,3-b]pyridine-3-carbonyl]phenyl]pyrrolidine-1-sulfonamide], for which the IC50 in experiment [1] was below 0.1 µM; in experiment [3], below 1 µM. The EC50 in experiment [2] is above 10 µM.
Regarding `CC(C)c1ncc(-c2cnc3[nH]cc(C(=O)c4cccc(NS(=O)(=O)N5CCCC5)c4F)c3c2)cn1` [Compound P-0047, N-[2-fluoro-3-[5-(2-isopropylpyrimidin-5-yl)-1H-pyrrolo[2,3-b]pyridine-3-carbonyl]phenyl]pyrrolidine-1-sulfonamide], the figures for the IC50 in experiment [1] and in experiment [3] were below 0.1 µM and below 1 µM, respectively. Moreover, the EC50 in experiment [2] is above 10 µM.
The matching figures for `O=C(c1cccc(NS(=O)(=O)N2CCCC2)c1F)c1c[nH]c2ncc(-c3cnc(C4CC4)nc3)cc12` [Compound P-0048, N-[3-[5-(2-cyclopropylpyrimidin-5-yl)-1H-pyrrolo[2,3-b]pyridine-3-carbonyl]-2-fluoro-phenyl]pyrrolidine-1-sulfonamide]: below 0.1 µM, below 1 µM and above 10 µM.
The matching figures for `COc1cc(-c2cnc3[nH]cc(C(=O)c4cccc(NS(=O)(=O)N5CCCC5)c4F)c3c2)ccc1C#N` [Compound P-0049, N-[3-[5-(4-cyano-3-methoxy-phenyl)-1H-pyrrolo[2,3-b]pyridine-3-carbonyl]-2-fluoro-phenyl]pyrrolidine-1-sulfonamide]: below 0.1 µM, below 1 µM and above 4 µM.
The matching figures for `N#CC1(c2ccc(-c3cnc4[nH]cc(C(=O)c5cccc(NS(=O)(=O)N6CCCC6)c5F)c4c3)cc2)CC1` [Compound P-0050, N-[3-[5-[4-(1-cyanocyclopropyl)phenyl]-1H-pyrrolo[2,3-b]pyridine-3-carbonyl]-2-fluoro-phenyl]pyrrolidine-1-sulfonamide]: below 0.1 µM, below 1 µM and above 10 µM.
With `CC(C)c1ncc(-c2cnc3[nH]cc(C(=O)c4cccc(NS(=O)(=O)N(C)C)c4F)c3c2)cn1` [Compound P-0051, 3-[3-(dimethylsulfamoylamino)-2-fluoro-benzoyl]-5-(2-isopropylpyrimidin-5-yl)-1H-pyrrolo[2,3-b]pyridine], the IC50 in experiment [1] was below 0.1 µM; in experiment [3], below 1 µM. In experiment [2], this compound returned an EC50 above 10 µM.
The matching figures for `CN(C)S(=O)(=O)Nc1cccc(C(=O)c2c[nH]c3ncc(-c4cnc(C5CC5)nc4)cc23)c1F` [Compound P-0052, 5-(2-cyclopropylpyrimidin-5-yl)-3-[3-(dimethylsulfamoylamino)-2-fluoro-benzoyl]-1H-pyrrolo[2,3-b]pyridine]: below 0.1 µM, below 1 µM and above 10 µM.
Turning to `CN(C)S(=O)(=O)Nc1cccc(C(=O)c2c[nH]c3ncc(-c4ccc(C(F)(F)F)nc4)cc23)c1F` [Compound P-0053, 3-[3-(dimethylsulfamoylamino)-2-fluoro-benzoyl]-5-[6-(trifluoromethyl)-3-pyridyl]-1H-pyrrolo[2,3-b]pyridine], the IC50 in experiment [1] is below 0.1 µM; in experiment [3] it was below 1 µM. The concentration for a half-maximal effect (EC50) in experiment [2] was above 10 µM.
The corresponding values for `COc1cc(-c2cnc3[nH]cc(C(=O)c4cccc(NS(=O)(=O)N(C)C)c4F)c3c2)ccc1C#N` [Compound P-0054, 5-(4-cyano-3-methoxy-phenyl)-3-[3-(dimethylsulfamoylamino)-2-fluoro-benzoyl]-1H-pyrrolo[2,3-b]pyridine] are below 0.1 µM, above 1 µM and above 1 µM.
The matching figures for `CN(C)S(=O)(=O)Nc1cccc(C(=O)c2c[nH]c3ncc(-c4ccc(C5(C#N)CC5)cc4)cc23)c1F` [Compound P-0055, 5-[4-(1-cyanocyclopropyl)phenyl]-3-[3-(dimethylsulfamoylamino)-2-fluoro-benzoyl]-1H-pyrrolo[2,3-b]pyridine]: below 0.1 µM, below 1 µM and above 10 µM.
The matching figures for `CCN(C)S(=O)(=O)Nc1cccc(C(=O)c2c[nH]c3ncc(-c4cnc(C)nc4)cc23)c1F` [Compound P-0056, 3-[3-[[ethyl(methyl)sulfamoyl]amino]-2-fluoro-benzoyl]-5-(2-methylpyrimidin-5-yl)-1H-pyrrolo[2,3-b]pyridine]: below 0.1 µM, below 1 µM and above 10 µM.
As to `CCN(C)S(=O)(=O)Nc1cccc(C(=O)c2c[nH]c3ncc(-c4cnc(C(C)C)nc4)cc23)c1F` [Compound P-0057, 3-[3-[[ethyl(methyl)sulfamoyl]amino]-2-fluoro-benzoyl]-5-(2-isopropylpyrimidin-5-yl)-1H-pyrrolo[2,3-b]pyridine], the IC50 in experiment [1] is below 0.1 µM; in experiment [3], below 1 µM. Moreover, the EC50 in experiment [2] was above 10 µM.
The matching figures for `CCN(C)S(=O)(=O)Nc1cccc(C(=O)c2c[nH]c3ncc(-c4cnc(C5CC5)nc4)cc23)c1F` [Compound P-0058, 5-(2-cyclopropylpyrimidin-5-yl)-3-[3-[[ethyl(methyl)sulfamoyl]amino]-2-fluoro-benzoyl]-1H-pyrrolo[2,3-b]pyridine]: below 0.1 µM, below 1 µM and above 10 µM.
The corresponding values for `CCN(C)S(=O)(=O)Nc1cccc(C(=O)c2c[nH]c3ncc(-c4ccc(C(F)(F)F)nc4)cc23)c1F` [Compound P-0059, 3-[3-[[ethyl(methyl)sulfamoyl]amino]-2-fluoro-benzoyl]-5-[6-(trifluoromethyl)-3-pyridyl]-1H-pyrrolo[2,3-b]pyridine] are below 0.1 µM, below 1 µM and above 10 µM.
